In the SangsterLogP compilation one finds logP data, which are given here for 21 molecules.

Consider `Cn1c(S)nnc(-c2cc(Cl)cc(Cl)c2)c1=O`, for which the logP – broadly, a log measure of how a compound divides between an organic and an aqueous phase – is 3.43.
The figure for `CSc1nnc(C(C)C)c(=O)n1N` is 1.23; for `CNc1nnc(-c2ccc(F)c(Cl)c2)c(=O)n1C` it is 1.6.
`Cc1nnc(C(C)(C)C)c(=O)n1N` yielded a logP of 1.03.
For `CCOc1cccc(-c2nnc(C)n(NC)c2=O)c1` the value was 1.91.
The figure for `Cn1c(S)nnc(-c2ccc(F)cc2)c1=O` is 2.38; for `CSc1nnc(-c2cc(Cl)cc(Cl)c2)c(=O)n1N` it is 3.02; for `CSc1nnc(C)c(=O)n1N` it is 0.15.
For `COc1nnc(C(C)(C)C)c(=O)n1N` the value was 1.31; for `CCCc1nnc(SC)n(N)c1=O`, 1.19; for `CSc1nnc(CC(C)C)c(=O)n1N`, 1.53.
`CNc1nnc(-c2ccc(OC(F)(F)F)cc2)c(=O)[nH]1` returned a logP of 1.86.
The figure for `CSc1nnc(-c2ccc(OC(F)(F)F)cc2)c(=O)[nH]1` is 2.35.
For `CN(C)c1nnc(C(C)(C)C)c(=O)n1C` the value was 1.07; for `CNc1nnc(C(C)(C)C)c(=O)n1N`, 0.52; for `CCOc1cccc(-c2nnc(S)n(C)c2=O)c1`, 2.67.
For `CSc1nnc(C2CCOCC2)c(=O)n1N` the value was 1.07.
In turn, `Nn1c(S)nnc(-c2cc(Cl)cc(Cl)c2)c1=O` had a logP of 2.67.
For `CSc1nnc(C2CCCCC2)c(=O)n1N` the value was 2.09; for `CNc1nnc(-c2ccc(OC(F)(F)F)c(Cl)c2)c(=O)n1C`, 2.35; for `CNc1nnc(-c2cc(Cl)cc(Cl)c2)c(=O)n1N`, 1.91.
